Counter-ions that a name gives are not always drawn.
Tests used:
[1] = target: T1, recombinant human cIAP2-BIR3 protein (Homo sapiens, UniProt Q13489); assay: Recombinant human c-IAP2-BIR3 biochemical assay (HTRF, peptide displacement); details: 3.7 nM cIAP2-BIR3, 3.7 nM AbuRPF-K(5-Fam)-NH2 peptide, read-out: Protein binding IC50 (nM) c-IAP2
T1 construct: recombinant human cIAP2-BIR3 protein; purchased Reaction biology APT-11-372
Description: II. Recombinant Human c-IAP2-BIR3 Biochemical Assay
(§1) Compounds disclosed herein were tested for blocking of recombinant human cIAP2-BIR3 protein (Cat: APT-11-372, Reaction biology) with its peptide in an assay based on Homogeneous Time Resolved Fluorescence. 3.7 nM recombinant human cIAP2-BIR3 protein was pre-incubated with a serial dilution of compounds disclosed herein (maximum concentration is 10 uM, 4-fold serially diluted, 10 points) at room temperature for 1 hour in an assay buffer containing 20 mM HEPES, pH 7.5, 50 mM NaCl, 0.005% Tween-20, 1 mM DTT. Then 3.7 nM AbuRPF-K(5-Fam)-NH2 (Cat: 709702, GL Biochem) was added to plate incubated at room temperature for 1 hour. Mab Anti-6His Tb cryptate Gold (Cat: 61HI2TLB, Cisbio Bioassays) was added to plate and further incubated at room temperature for 1 hour. The HTRF signals (ex337 nm, em520 nm/490 nm) were read on BMG PHERAstar FS instrument. The inhibition percentage of cIAP2-BIR3 interaction with its peptide in presence of increasing concentrations of compounds was calculated based on the ratio of fluorescence at 520 nm to that at 490 nm. The IC50 for each compound was derived from fitting the data to the four-parameter logistic equation by Dotmatics and summarized in table 1.

[2] = target: T2, recombinant human cIAP1-BIR3 protein (Homo sapiens, UniProt Q13490); assay: Recombinant human c-IAP1-BIR3 biochemical assay (HTRF, peptide displacement); details: 1.2 nM cIAP1-BIR3, 3 nM AbuRPF-K(5-Fam)-NH2 peptide, read-out: Protein binding IC50 (nM) c-IAP1
T2 construct: recombinant human cIAP1-BIR3 protein; purchased Reaction biology APT-11-370
Description: I. Recombinant human c-IAP1-BIR3 biochemical assay
as §1, with “human cIAP1-BIR3” for “human cIAP2-BIR3”, “(Cat: APT-11-370,” for “(Cat: APT-11-372,”, “Fluorescence. 1.2” for “Fluorescence. 3.7”, “Then 3” for “Then 3.7”, “nM AbuRPF-K (5-Fam)-NH2” for “nM AbuRPF-K(5-Fam)-NH2”, “of cIAP1-BIR3” for “of cIAP2-BIR3”

[3] = target: T3, recombinant human XIAP-BIR3 protein (Homo sapiens, UniProt P98170); assay: Recombinant human XIAP-BIR3 biochemical assay (HTRF, peptide displacement); details: 3.7 nM XIAP-BIR3, 7.6 nM AbuRPF-K(5-Fam)-NH2 peptide, read-out: Protein binding IC50 (nM) XIAP
T3 construct: recombinant human XIAP-BIR3 protein; purchased Reaction biology APT-11-374
Description: III. Recombinant Human XIAP-BIR3 Biochemical Assay
as §1, with “human XIAP-BIR3” for “human cIAP2-BIR3”, “(Cat: APT-11-374,” for “(Cat: APT-11-372,”, “Then 7.6” for “Then 3.7”, “of XIAP-BIR3” for “of cIAP2-BIR3”

T3 sequence (P98170 241-356 limits assumed): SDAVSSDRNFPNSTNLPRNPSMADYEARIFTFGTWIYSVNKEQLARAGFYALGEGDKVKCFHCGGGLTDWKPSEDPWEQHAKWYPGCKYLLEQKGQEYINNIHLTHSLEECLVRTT
T2 sequence (Q13490 253-363 limits assumed): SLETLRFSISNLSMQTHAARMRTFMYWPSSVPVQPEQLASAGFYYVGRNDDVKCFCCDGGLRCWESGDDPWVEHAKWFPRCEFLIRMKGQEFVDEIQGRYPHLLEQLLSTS
T1 sequence (Q13489 238-349 limits assumed): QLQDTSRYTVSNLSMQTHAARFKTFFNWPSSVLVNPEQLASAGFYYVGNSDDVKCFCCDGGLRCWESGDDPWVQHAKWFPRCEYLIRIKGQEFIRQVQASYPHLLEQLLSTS

Row | IC50 [1] | IC50 [2] | IC50 [3] | SMILES
1 | 5.75 nM | 2.6 nM | 41 nM | C[C@@H]1CN(CC(=O)N2CCOc3nc(C4(O)CC4)c(Cc4ccc(F)cc4)cc32)[C@@H](CN2CCOC[C@H]2C)CN1 [Compound 21, 1-(7-(4-fluorobenzyl)-6-(1-hydroxycyclopropyl)-2,3-dihydro-1H-pyrido[2,3-b][1,4]oxazin-1-yl)-2-((2R,5R)-5-methyl-2-(((R)-3-methylmorpholino)methyl)piperazin-1-yl)ethan-1-one]
2 | 0.21 nM | 0.13 nM | 3.97 nM | C[C@@H]1CN(CC(=O)N2c3cc(Cc4ccc(F)cc4)cnc3OC[C@@H]2C)[C@@H](CN2[C@H](C)COC[C@H]2C)CN1 [Compound 22]
3 | 0.24 nM | 0.15 nM | 4.49 nM | C[C@@H]1CN(CC(=O)N2c3cc(Cc4ccc(F)cc4)c(CO)nc3OC[C@@H]2C)[C@@H](CN2[C@H](C)COC[C@H]2C)CN1 [Compound 24]
4 | 0.5 nM | 0.3 nM | 6 nM | C[C@@H]1CN(CC(=O)N2c3cc(Cc4ccc(F)cc4)c(CO)nc3OC[C@@H]2C)[C@@H](CN2CCOC[C@H]2C)CN1 [Compound 25, 1-((S)-7-(4-fluorobenzyl)-6-(hydroxymethyl)-2-methyl-2,3-dihydro-1H-pyrido[2,3-b][1,4]oxazin-1-yl)-2-((2R,5R)-5-methyl-2-(((R)-3-methylmorpholino)methyl)piperazin-1-yl)ethan-1-one]
5 | 0.62 nM | 0.26 nM | 14 nM | CC[C@H]1COc2ncc(Cc3ccc(F)cc3)cc2N1C(=O)CN1C[C@@H](C)NC[C@@H]1CN1CCOC[C@H]1C [Compound 28, 1-((S)-2-ethyl-7-(4-fluorobenzyl)-2,3-dihydro-1H-pyrido[2,3-b][1,4]oxazin-1-yl)-2-((2R,5R)-5-methyl-2-(((R)-3-methylmorpholino)methyl)piperazin-1-yl)ethan-1-one]

Further lines, the compound ahead of its results:

Row | SMILES | IC50 [1] | IC50 [2] | IC50 [3]
6 | C[C@@H]1CN(CC(=O)N2CCOc3ncc(Cc4ccc(F)cc4)cc32)[C@@H](CN2[C@H](C)COC[C@H]2C)CN1 [Compound 16, 2-((2R,5R)-2-(((3R,5R)-3,5-dimethylmorpholino)methyl)-5-methylpiperazin-1-yl)-1-(7-(4-fluorobenzyl)-2,3-dihydro-1H-pyrido[2,3-b][1,4]oxazin-1-yl)ethan-1-one] | 0.85 nM | 0.34 nM | 8.4 nM
7 | CCOc1nc2c(cc1Cc1ccc(F)cc1)N(C(=O)CN1C[C@@H](C)NC[C@@H]1CN1CCOC[C@H]1C)CCO2 [Compound 17, 1-(6-ethoxy-7-(4-fluorobenzyl)-2,3-dihydro-1H-pyrido[2,3-b][1,4]oxazin-1-yl)-2-((2R,5R)-5-methyl-2-(((R)-3-methylmorpholino)methyl)piperazin-1-yl)ethan-1-one] | 1.3 nM | 0.53 nM | 5.4 nM
8 | C[C@@H]1CN(CC(=O)N2CCCOc3ncc(Cc4ccc(F)cc4)cc32)[C@@H](CN2CCOC[C@H]2C)CN1 [Compound 18, 1-(8-(4-fluorobenzyl)-3,4-dihydropyrido[2,3-b][1,4]oxazepin-1(2H)-yl)-2-((2R,5R)-5-methyl-2-(((R)-3-methylmorpholino)methyl)piperazin-1-yl)ethan-1-one] | > 1000 nM | > 1000 nM | > 1000 nM
9 | CC1COc2ncc(Cc3ccc(F)cc3)cc2N1C(=O)CN1C[C@@H](C)NC[C@@H]1CN1CCOC[C@H]1C (stereo partly drawn) [Compound 19, 1-(7-(4-fluorobenzyl)-2-methyl-2,3-dihydro-1H-pyrido[2,3-b][1,4]oxazin-1-yl)-2-((2R,5R)-5-methyl-2-(((R)-3-methylmorpholino)methyl)piperazin-1-yl)ethan-1-one] | 1.2 nM | 0.82 nM | 7.7 nM
10 | C[C@@H]1CN(CC(=O)N2c3cc(Cc4ccc(F)cc4)cnc3OC[C@@H]2C)[C@@H](CN2CCOC[C@H]2C)CN1 [Compound 19A, 1-((S)-7-(4-fluorobenzyl)-2-methyl-2,3-dihydro-1H-pyrido[2,3-b][1,4]oxazin-1-yl)-2-((2R,5R)-5-methyl-2-(((R)-3-methylmorpholino)methyl)piperazin-1-yl)ethan-1-one] | 0.25 nM | 0.13 nM | 2.7 nM
11 | C[C@@H]1CN(CC(=O)N2c3cc(Cc4ccc(F)cc4)cnc3OC[C@H]2C)[C@@H](CN2CCOC[C@H]2C)CN1 [Compound 19B, 1-((R)-7-(4-fluorobenzyl)-2-methyl-2,3-dihydro-1H-pyrido[2,3-b][1,4]oxazin-1-yl)-2-((2R,5R)-5-methyl-2-(((R)-3-methylmorpholino)methyl)piperazin-1-yl)ethan-1-one] | 27 nM | 6.4 nM | 33 nM
12 | C[C@@H]1CN(CC(=O)N2c3cc(Cc4ccc(F)cc4)cnc3OCC23CC3)[C@@H](CN2CCOC[C@H]2C)CN1 [Compound 20, 1-(7′-(4-fluorobenzyl)-1′H,3′H-spiro[cyclopropane-1,2′-pyrido[2,3-b][1,4]oxazin]-1′-yl)-2-((2R,5R)-5-methyl-2-(((R)-3-methylmorpholino)methyl)piperazin-1-yl)ethan-1-one hydrochloride] | 25 nM | 9.9 nM | 140 nM
13 | C[C@@H]1CN(CC(=O)N2c3cc(Cc4ccc(F)cc4)cnc3OC[C@@H]2COCc2ccccc2)[C@@H](CN2[C@H](C)COC[C@H]2C)CN1 [Compound 23, 1-((S)-2-((benzyloxy)methyl)-7-(4-fluorobenzyl)-2,3-dihydro-1H-pyrido[2,3-b][1,4]oxazin-1-yl)-2-((2R,5R)-2-(((3R,5R)-3,5-dimethylmorpholino)methyl)-5-methylpiperazin-1-yl)ethan-1-one] | 0.18 nM | 0.13 nM | 6.9 nM
14 | C[C@@H]1CN(CC(=O)N2c3cc(Cc4ccc(F)cc4)cnc3OC[C@@H]2C2CC2)[C@@H](CN2CCOC[C@H]2C)CN1 [Compound 26, 1-((S)-2-cyclopropyl-7-(4-fluorobenzyl)-2,3-dihydro-1H-pyrido[2,3-b][1,4]oxazin-1-yl)-2-((2R,5R)-5-methyl-2-(((R)-3-methylmorpholino)methyl)piperazin-1-yl)ethan-1-one] | 1.13 nM | 0.48 nM | 16 nM
15 | C[C@@H]1CN(CC(=O)N2c3cc(Cc4ccc(F)cc4)cnc3OC[C@@H]2C2CC2)[C@@H](CN2[C@H](C)COC[C@H]2C)CN1 [Compound 27, 1-((S)-2-cyclopropyl-7-(4-fluorobenzyl)-2,3-dihydro-1H-pyrido[2,3-b][1,4]oxazin-1-yl)-2-((2R,5R)-2-(((3R,5R)-3,5-dimethylmorpholino)methyl)-5-methylpiperazin-1-yl)ethan-1-one] | 0.5 nM | 0.2 nM | 14 nM

— patent US12583866B2, “Pyrido[2,3-b][1,4]oxazines or tetrahydropyrido[2,3-b][1,4]oxazepines as IAP antagonists” (BEIGENE, LTD., priority 2020, dated 2026)
